Results reported in PMC8071358, “Targeting of the Essential acpP, ftsZ, and rne Genes in Carbapenem-Resistant Acinetobacter baumannii by Antisense PNA Precision Antibacterials” (Biomedicines, 2021).
Converted amounts (≈) assume the structure as drawn. {(KFF)3K-eg1} = H-(KFF)3K peptide (K lysine, F phenylalanine) with eg1 linker (8-amino-3,6-dioxaoctanoyl), on the PNA N terminus (5' end); {NH2} = C-terminal amide

Experiments:
[1] = tested on: CRAB strain AC3; test: Antibiotic MIC (CLSI microdilution or gradient strips); type: cell-based, Acinetobacter baumannii; details: for MIC: Acinetobacter baumannii, AC3, sputum isolate
Method: (§1) All minimum inhibitory concentration (MIC) determinations for antibiotics were performed by the standard microdilution method in 96-well microplate (Thermo-Scientific, Roskilde, Denmark) or by gradient test strips (Liofilchem, Italy) according to the Clinical and Laboratory Standards Institute guidelines. Escherichia coli ATCC 25922 was used as control.

[2] = tested on: CRAB strain AC5; test: as above; type: cell-based, Acinetobacter baumannii; details: for MIC: Acinetobacter baumannii, AC5, urine isolate
Method: as §1

[3] = tested on: CRAB strain AC9; test: as above; type: cell-based, Acinetobacter baumannii; details: CSF isolate, CLSI; for MIC: Acinetobacter baumannii, AC9, read-out: MIC, AC9
Method: as §1

[4] = tested on: CRAB strain AC46; test: as above; type: cell-based, Acinetobacter baumannii; details: sputum isolate, CLSI; for MIC: Acinetobacter baumannii, AC46, read-out: MIC, AC46
Method: as §1

[5] = tested on: CRAB strain AC2; test: as above; type: cell-based, Acinetobacter baumannii; details: wound isolate, CLSI; for MIC: Acinetobacter baumannii, AC2, read-out: MIC, AC2
Method: as §1

[6] = tested on: A. baumannii ATCC 19606 type strain; test: as above; type: cell-based, Acinetobacter baumannii; details: for MIC: Acinetobacter baumannii, ATCC19606
Method: as §1

[7] = tested on: CRAB strain SSI1104; test: as above; type: cell-based, Acinetobacter baumannii; details: for MIC: Acinetobacter baumannii, SSI1104
Method: as §1

[8] = tested on: CRAB strain AC4; test: as above; type: cell-based, Acinetobacter baumannii; details: trachea isolate, CLSI; for MIC: Acinetobacter baumannii, AC4, read-out: MIC, AC4
Method: as §1

[9] = tested on: CRAB strain AC8; test: as above; type: cell-based, Acinetobacter baumannii; details: sputum isolate, CLSI; for MIC: Acinetobacter baumannii, AC8, read-out: MIC, AC8
Method: as §1

[10] = tested on: CRAB strain AC44; test: as above; type: cell-based, Acinetobacter baumannii; details: for MIC: Acinetobacter baumannii, AC44, urine isolate
Method: as §1

[11] = tested on: CRAB strain AC1; test: as above; type: cell-based, Acinetobacter baumannii; details: for MIC: Acinetobacter baumannii, AC1, wound isolate
Method: as §1

[12] = tested on: CRAB strain AC6; test: as above; type: cell-based, Acinetobacter baumannii; details: blood isolate, CLSI; for MIC: Acinetobacter baumannii, AC6, read-out: MIC, AC6
Method: as §1, with “guidelines.” for “guidelines. Escherichia coli ATCC 25922 was used as control.”

[13] = tested on: CRAB strain AC7; test: as above; type: cell-based, Acinetobacter baumannii; details: blood isolate, CLSI; for MIC: Acinetobacter baumannii, AC7, read-out: MIC, AC7
Method: as §1, with “guidelines.” for “guidelines. Escherichia coli ATCC 25922 was used as control.”

[14] = tested on: CRAB strains; test: BPP-PNA MIC/MBC summarised over the panel of strains; type: cell-based, Acinetobacter baumannii
Method: (§2) MIC values were determined by broth microdilution according to standard protocols with a few modifications. An overnight bacterial cell culture was diluted to approximately 5 × 10^5 CFU/mL in non-cation-adjusted Muller Hinton Broth (MHB). Then, 180 µL bacterial solutions were dispensed into a low-bind 96-well plate (Thermo-Scientific, Roskilde, Denmark) along with 20 µL of BPP-PNA compound (BPP-PNA was serially diluted 2-fold from 16 to 0.5 µM in a 96-well plate). The plate was incubated in a Tecan Genios plate reader (GMI, Minnesota, Ramsey, USA) at 37 °C for 18 h with linear shaking, OD was measured every 20 min at 595 nm. […] The minimum bactericidal concentration (MBC) values were determined by plating 10 µL samples from the wells with no visible turbidity onto Mueller–Hinton agar plates. The MBC is determined the lowest concentration of BPP-PNA that reduces the viability of the initial bacterial inoculum by ≥99.9% (3-log reduction in CFU/mL). A minimum of two independent experiments (biological replicates) of the assay were conducted, and two technical replicates were used in each experiment for each bacterium, compound, and concentration.

[15] = tested on: E. coli K-12 MG1655; test: BPP-PNA MIC, broth microdilution; type: cell-based, Escherichia coli; details: non-target species; MHB without cation (Oxoid)
Method: as §2

[16] = tested on: CRAB strain AC2; test: BPP-PNA MIC, broth microdilution; type: cell-based, Acinetobacter baumannii; details: 37 °C, 18 h
Method: as §2

[17] = tested on: CRAB strain AC44; test: BPP-PNA MIC, broth microdilution; type: cell-based, Acinetobacter baumannii; details: 37 °C, 18 h
Method: as §2

[18] = tested on: A. baumannii ATCC 19606; test: BPP-PNA MIC, broth microdilution; type: cell-based, Acinetobacter baumannii; details: 37 °C, 18 h
Method: as §2

[19] = tested on: P. aeruginosa (PAO1); test: BPP-PNA MIC, broth microdilution; type: cell-based, Pseudomonas aeruginosa; details: non-target species; MHB without cation (Oxoid)
Method: as §2

[20] = tested on: CRAB strain AC46; test: BPP-PNA MIC, broth microdilution; type: cell-based, Acinetobacter baumannii; details: 37 °C, 18 h
Method: as §2, with “An overnight bacterial cell culture was diluted to approximately 5 × 10^5 CFU/mL in non-cation-adjusted Muller Hinton Broth (MHB).” left out

[21] = tested on: A. baumannii SSI1104; test: BPP-PNA MIC, broth microdilution; type: cell-based, Acinetobacter baumannii; details: 37 °C, 18 h
Method: as §2, with “An overnight bacterial cell culture was diluted to approximately 5 × 10^5 CFU/mL in non-cation-adjusted Muller Hinton Broth (MHB).” left out

[22] = tested on: acpP mRNA in CRAB AC44 strain; test: Real-time RT-PCR of target mRNA; type: cell-based, Acinetobacter baumannii; details: AC44, 1 h treatment, normalised to 16S rRNA, against untreated control
Method: Real time RT-PCR was used to determine the relative expression level of the target gene upon treatment with match BPP-PNA compared to mismatch and untreated controls. The primers for q-PCR were designed to match conserved gene sequences using the AlleleID7 software (Premier Biosoft, San Francisco, CA, USA) (Table S6). Additionally, for more accurate expression of the genes at treatment and untreated conditions, the efficacy of target gene and internal controls primers was calculated by using three consecutive dilutions of the sample cDNA and drawing a standard curve through the slope of the line. […] Statistical analysis was carried out on the gene expression levels normalized to the chosen reference gene (16S rRNA) through −∆Ct analysis. The relative expression of each gene was determined by the 2^−ΔΔCT method. We used the GenEx standard (NormFinder and GeNorm) software (bioMCC, Germany) for analyzing the data.
An overnight culture of bacteria was diluted 1:100 in MHB medium and was grown with shaking (160 rpm) at 37 °C to reach the OD595 = 0.2. Then, the bacterial culture was treated with different concentrations of BPP-PNA for 1 h and the bacterial cells were harvested by centrifugation and the cell pellet used for RNA extraction.
Total RNA was isolated using the GeneJET RNA purification kit (ThermoFisher Scientific, Roskilde, Denmark) following the manufacturer’s protocol. RNA samples were treated with DNase for 30 min at 37 °C (Turbo DNA-free kit Ambion/Applied Biosystems, Carlsbad, CA, USA) and then incubated at 72 °C for 5 min to inactivate the DNase. The genomic DNA (gDNA) contamination was checked by polymerase chain reaction (PCR). RNA concentrations were determined by Nanodrop spectrophotometry at 260 nm and purity was checked by determining the absorption ratios at 260/280 nm. Total RNA (0.5 μg) was reverse-transcribed to yield cDNA as template for real-time quantitative PCR using the Quanti Tect reverse transcription kit (Qiagen, Copenhagen, Denmark). The cDNA was diluted 1:50 and used as a template in the reaction. […]

[23] = tested on: HepG2 hepatocytes; test: HepG2 cell toxicity (CellTiter-Glo, ATP); type: cell-based; details: 10 µM, ATP level
Method: The cell toxicity of selected BPP-PNAs was determined using HepG2 hepatocytes grown in DMEM (low glucose) medium supplemented with 100 U/mL penicillin, 100 µg/mL streptomycin, 1% glutamax, and 10% fetal bovine serum (FBS) (Thermofisher Scientific, Roskilde, Denmark), at 37 °C with 5% CO2. Then, 7000–10,000 cells were seeded in each well of a 96-well plate. After 48 h, the BPP-PNAs were added (six replicates for each concentration), followed by overnight incubation. Total amount of adenosine triphosphate (ATP) was used as a measure of cell viability, according to the CellTiter-Glo luminescent cell viability assay (Promega, Madison, WI, USA) kit. BPP-PNAs concentrations ranged from 2.5 to 20 µM. Potassium dichromate (100 µM) was used as a positive control.

[24] = Sigma MHB medium without cation
[25] = Sigma MHB medium without cation, ~5 × 10^5 CFU/mL, OD595 < 0.1
[26] = Oxoid MHB medium, cation adjusted

Compound	MIC [1]	MIC [2]	MIC [3]	MIC [4]	MIC [5]	MIC [6]	MIC [7]	MIC [8]	MIC [9]	MIC [10]	MIC [11]	MIC [12]	MIC [13]	MIC, AC2 [16, 24]	MIC, AC44 [17, 24]	MIC, ATCC 19606 ([18]; MHB without cation (Oxoid))	MIC, ATCC 19606 [18, 25]	MIC, AC46 [20, 24]	MIC, SSI 1104 [21, 24]	also measured
C[C@@H](O)[C@H]1C(=O)N2C(C(=O)O)=C(S[C@@H]3CN[C@H](C(=O)N(C)C)C3)[C@H](C)[C@H]12 [Meropenem]	4 µg/mL (≈ 10.4 µM)	16 µg/mL (≈ 41.7 µM)	16 µg/mL (≈ 41.7 µM)	16 µg/mL (≈ 41.7 µM)	16 µg/mL (≈ 41.7 µM)	1 µg/mL (≈ 2.61 µM)	> 16 µg/mL	16 µg/mL (≈ 41.7 µM)	16 µg/mL (≈ 41.7 µM)	16 µg/mL (≈ 41.7 µM)	4 µg/mL (≈ 10.4 µM)	16 µg/mL (≈ 41.7 µM)	16 µg/mL (≈ 41.7 µM)							
CN(C)c1cc(NC(=O)CNC(C)(C)C)c(O)c2c1C[C@H]1C[C@H]3[C@H](N(C)C)C(O)=C(C(N)=O)C(=O)[C@@]3(O)C(O)=C1C2=O [Tigecycline]	0.5 µg/mL (≈ 0.854 µM)	1 µg/mL (≈ 1.71 µM)	1 µg/mL (≈ 1.71 µM)	0.5 µg/mL (≈ 0.854 µM)	1 µg/mL (≈ 1.71 µM)	0.5 µg/mL (≈ 0.854 µM)	1 µg/mL (≈ 1.71 µM)	1 µg/mL (≈ 1.71 µM)	1 µg/mL (≈ 1.71 µM)	1 µg/mL (≈ 1.71 µM)	0.5 µg/mL (≈ 0.854 µM)	1 µg/mL (≈ 1.71 µM)	1 µg/mL (≈ 1.71 µM)							
Colistin																				MIC, AC3 ([1]; sputum isolate): 1 µg/mL; MIC, AC5 ([2]; urine isolate): 1 µg/mL; MIC, AC9 [3]: 1 µg/mL; MIC, AC46 [4]: 1 µg/mL; MIC, AC2 [5]: 1 µg/mL; MIC, ATCC 19606 [6]: 1 µg/mL; MIC, SSI 1104 [7]: 1 µg/mL; MIC, AC4 [8]: 1 µg/mL; MIC, AC8 [9]: 1 µg/mL; MIC, AC44 ([10]; urine isolate): 0.5 µg/mL; MIC, AC1 ([11]; wound isolate): 1 µg/mL; MIC, AC6 [12]: 1 µg/mL; MIC, AC7 [13]: 1 µg/mL
H-(KFF)3K-eg1-ATATCGCTCAC-NH2 (all peptide nucleic acid (PNA), 5' {(KFF)3K-eg1}, 3' {NH2}) [PNA 5652, anti-acpP peptide-PNA conjugate, match, +40 to +50]														4 µM	4 µM	4 µM	4 µM	4 µM	4 µM	MIC (complete growth inhibition) over the CRAB strains tested ([14]; several A. baumannii strains): 4 µM; MIC, E. coli K-12 MG1655 [15]: 16 µM; MIC, P. aeruginosa (PAO1) [19]: 16 µM; MIC, SSI 1104 ([21]; MHB without cation (Oxoid)): 4 µM
H-(KFF)3K-eg1-TGACTTGTCAC-NH2 (all peptide nucleic acid (PNA), 5' {(KFF)3K-eg1}, 3' {NH2}) [PNA 5640, anti-acpP mismatch control of 5639]														4 µM	4 µM		4 µM	4 µM	4 µM	reduction in the level of the acpP mRNA [22]: 4 fold; MIC, AC2 [16, 26]: 4 µM; MIC, AC44 [17, 26]: 4 µM; MIC, ATCC 19606 [18, 26]: 4 µM; MIC, AC46 [20, 26]: 4 µM; MIC, SSI 1104 [21, 26]: 4 µM
H-(R-Ahx-R)4-Ahx-GAGGCCATGAC-NH2 (N-terminal (R-Ahx-R)4-Ahx peptide, C-terminal amide, backbone not given here, further chemistry not given here) [PNA 5613, anti-ftsZ (R-Ahx-R)4-Ahx-PNA, match]																>16 µM				MIC ([14]; text on Table 2, (R-Ahx-R)4 BPP): > 16 µM; MIC, AC44 ([17]; MHB without cation (Oxoid)): >16 µM; toxicity in HepG2 [23]: very significant toxicity
